Test results published in the RepoRT retention time repository.

Assay: HILIC, Waters ACQUITY UPLC BEH Amide, 100 × 2.1 mm, 1.7 µm; A: water + 0.125% formic acid + 10 mM ammonium formate; B: 5% water + 95% acetonitrile + 0.125% formic acid + 10 mM ammonium formate; gradient (min/%B) 0/100 2/100 7.7/70 9.5/40 10.25/30 12.75/100 17/100
Conditions: stereoisomer not certain

Compound	LC retention time [min]
CC(C(O)c1ccc(O)cc1)N1CCC(Cc2ccccc2)CC1 (stereo not drawn) [Ifenprodil]	3.17
c1c[nH]cn1 [Imidazole]	4.53
O=C1C(c2c(O)[nH]c3ccccc23)=Nc2ccccc21 [Indarubicin]	1.07
CNC1CC(c2ccc(Cl)c(Cl)c2)c2ccccc21 (stereo not drawn) [Indatraline]	2.88
CC(C)(C)NC(=O)C1CN(Cc2cccnc2)CCN1CC(O)CC(Cc1ccccc1)C(=O)NC1c2ccccc2CC1O (stereo not drawn) [Indinavir]	2.17
NC(=O)Cc1c[nH]c2ccccc12 [Indole-3-acetamide]	1.36
O=Cc1c[nH]c2ccccc12 [Indole-3-carboxaldehyde]	1.16
O=C(O)c1c[nH]c2ccccc12 [Indole-3-carboxylic acid]	1.41
O=C(O)C(O)Cc1c[nH]c2ccccc12 (stereo not drawn) [Indolelactic acid]	2.25
COc1ccc2c(c1)c(CC(=O)O)c(C)n2C(=O)c1ccc(Cl)cc1 [Indomethacin]	1.08
O=c1[nH]cnc2c1ncn2C1OC(CO)C(O)C1O (stereo not drawn) [Inosine]	6.19
CC(C)Oc1ccc2c(=O)c(-c3ccccc3)coc2c1 [Ipriflavone]	0.94
CCCCC1=NC2(CCCC2)C(=O)N1Cc1ccc(-c2ccccc2-c2nn[nH]n2)cc1 [Irbesartan]	1.16
Nc1nc(N)nc(-c2cc(Cl)ccc2Cl)n1 [Irsogladine]	1.25
CC(C)CN [Isobutylamine]	5.04
CC(C)C(=O)O [Isobutyric acid]	1.77
COc1cc(-c2oc3cc(O)cc(O)c3c(=O)c2OC2OC(COC3OC(C)C(O)C(O)C3O)C(O)C(O)C2O)ccc1O (stereo not drawn) [Isorhamnetin-3-O-rutinoside]	6.02
COc1cc(-c2oc3cc(O)cc(O)c3c(=O)c2OC2OC(CO)C(O)C(O)C2O)ccc1O (stereo not drawn) [Isorhamnetin-3-glucoside]	4.49
CC(C)CC(=O)OC(CC(=O)[O-])C[N+](C)(C)C [Isovaleryl-L-carnitine]	5.36
COC(=O)C1=C(C)NC(C)=C(C(=O)OC(C)C)C1c1cccc2nonc12 (stereo not drawn) [Isradipine]	0.95

Compound	LC retention time [min]
CC1OC(OCC2OC(Oc3c(-c4ccc(O)cc4)oc4cc(O)cc(O)c4c3=O)C(O)C(O)C2O)C(O)C(O)C1O (stereo not drawn) [Kaempferol-3-O-rutinoside]	6.09
CC(=O)N1CCN(c2ccc(OCC3COC(Cn4ccnc4)(c4ccc(Cl)cc4Cl)O3)cc2)CC1 (stereo not drawn) [Ketoconazole]	1.73
CC(C)C(=O)C(=O)O [Ketoisovaleric acid]	2.84
CN1CCC(=C2c3ccccc3CC(=O)c3sccc32)CC1 [Ketotifen]	2.71
Nc1ccccc1C(=O)CC(N)C(=O)O (stereo not drawn) [Kynurenine]	6.98
CS(=O)(=O)Nc1ccc(Cc2noc(-c3ccc4[nH]cc(CCN)c4c3)n2)cc1 [L-694,247]	5.25
NC(CCC(=O)NC(CSSCC(N)C(=O)O)C(=O)NCC(=O)O)C(=O)O [L-Cysteine-glutathione disulfide]	10.2
NC(=O)NCCCC[C@H](N)C(=O)O [L-Homocitrulline]	8.73
OCC(O)C(O)C(OC1OC(CO)C(O)C(O)C1O)C(O)CO (stereo not drawn) [Lactitol]	8.99
Nc1ccn(C2CSC(CO)O2)c(=O)n1 (stereo not drawn) [Lamivudine]	3.4
Nc1nnc(-c2cccc(Cl)c2Cl)c(N)n1 [Lamotrigine]	1.98
CC(C)OC(=O)CCCC=CCC1C(O)CC(O)C1CCC(O)CCc1ccccc1 (stereo not drawn) [Latanoprost]	1.06
CCCCCCCCCCCC(=O)OC(CC(=O)[O-])C[N+](C)(C)C [Lauroyl-L-carnitine]	3.63
N#Cc1ccc(C(c2ccc(C#N)cc2)n2cncn2)cc1 [Letrozol]	0.98
CC(C)CC(N)C(=O)NC(C)C(=O)O (stereo not drawn) [Leu-Ala]	5
CC(C)CC(N)C(=O)NC(CCCN=C(N)N)C(=O)O (stereo not drawn) [Leu-Arg]	8.86
CC(C)CC(N)C(=O)O (stereo not drawn) [Leucine]	7.08
c1ccc(C2CN3CCSC3=N2)cc1 (stereo not drawn) [Levamisole]	2.95
CCC(C(N)=O)N1CCCC1=O (stereo not drawn) [Levetiracetam]	1.45
C#CC1(O)CCC2C3CCC4=CC(=O)CCC4C3CCC21CC (stereo not drawn) [Levonorgestrel]	0.99

Compound	LC retention time [min]
CCN1CCCC1CNC(=O)c1cc(S(N)(=O)=O)ccc1OC (stereo not drawn) [Levosulpiride]	4.37
CCN(CC)CC(=O)Nc1c(C)cccc1C [Lidocaine]	1.97
CC(=O)NCC1CN(c2ccc(N3CCOCC3)c(F)c2)C(=O)O1 (stereo not drawn) [Linezolide]	1.15
CCCCCC=CCC=CCCCCCCCC(=O)OC(CC(=O)[O-])C[N+](C)(C)C (stereo not drawn) [Linoleoylcarnitine]	3.1
O=C1N(c2ccccc2)c2ccccc2C1(Cc1ccncc1)Cc1ccncc1 [Linopirdine]	1.17
NC(=O)CCCCC1CCSS1 (stereo not drawn) [Lipoamide]	1.25
CN1C(CC(=O)c2ccccc2)CCCC1CC(O)c1ccccc1 (stereo not drawn) [Lobeline A]	2.02
CN(CCCN1c2ccccc2CCc2ccccc21)CC(=O)c1ccc(Cl)cc1 [Lofepramine]	1.91
CC(Oc1c(Cl)cccc1Cl)C1=NCCN1 (stereo not drawn) [Lofexidine]	2.65
CC(=O)CCCCn1cnc2c1c(=O)n(C)c(=O)n2C [Lomifylline]	1.09
CCOC(=O)N1CCC(=C2c3ccc(Cl)cc3CCc3cccnc32)CC1 [Loratadine]	1.11
O=C1Nc2ccc(Cl)cc2C(c2ccccc2Cl)=NC1O (stereo not drawn) [Lorazepam]	1.33
CN1CCN(C2=Nc3ccccc3Oc3ccc(Cl)cc32)CC1 [Loxapine]	2.18
CC(C(=O)O)c1ccc(CC2CCCC2=O)cc1 (stereo not drawn) [Loxoprofen]	1.09
NCCCCC(N)C(=O)NCC(=O)O (stereo not drawn) [Lys-Gly]	9.84
CC(C)c1ccc2c(c1)c(SC(C)(C)C)c(CC(C)(C)C(=O)O)n2Cc1ccc(Cl)cc1 [MK-886]	0.96
NC(=O)C=CC(=O)O [Maleamic acid]	1.12
Cc1occc(=O)c1O [Maltol]	1.32
OCC1OC(OC2C(CO)OC(O)C(O)C2O)C(O)C(O)C1O (stereo not drawn) [Maltose]	8.75
CNCCCC12CCC(c3ccccc31)c1ccccc12 [Maprotiline]	2.66

Results, then the molecule that gave them:

LC retention time [min]	Compound
5.36	Cc1ccc(NC(=O)c2ccc(CN3CCN(C)CC3)cc2)cc1Nc1nccc(-c2cccnc2)n1 [Imatinib]
1.24	OCc1c[nH]c2ccccc12 [Indole-3-carbinol]
5.11	O=C(O)C(=O)Cc1c[nH]c2ccccc12 [Indole-3-pyruvic acid]
3.33	Nc1c2c(nc3c1CCC3)CCCC2 [Ipidacrine]
5.03	CCc1c2c(nc3ccc(OC(=O)N4CCC(N5CCCCC5)CC4)cc13)-c1cc3c(c(=O)n1C2)COC(=O)C3(O)CC (stereo not drawn) [Irinotecan]
7.18	CCC(C)C(N)C(=O)O (stereo not drawn) [Isoleucine]
7.19	OCC1OC(OCC2OC(O)C(O)C(O)C2O)C(O)C(O)C1O (stereo not drawn) [Isomaltose]
1.81	CC(C)=CCNc1ncnc2nc[nH]c12 [Isopentenyladenine]
6.41	Nc1nc2[nH]c(=O)cnc2c(=O)[nH]1 [Isoxanthopterin]
3.65	COc1ccc(C(=O)NCc2ccc(OCCN(C)C)cc2)cc1OC [Itopride]
0.97	CCC(C)n1ncn(-c2ccc(N3CCN(c4ccc(OCC5COC(Cn6cncn6)(c6ccc(Cl)cc6Cl)O5)cc4)CC3)cc2)c1=O (stereo not drawn) [Itraconzaole]
1.4	O=c1c(O)c(-c2ccc(O)cc2)oc2cc(O)cc(O)c12 [Kaempferol]
2.04	COC1C(O)CC(=O)OC(C)CC=CC=CC(O)C(C)CC(CC=O)C1OC1OC(C)C(OC2CC(C)(O)C(OC(=O)CC(C)C)C(C)O2)C(N(C)C)C1O (stereo not drawn) [Kitasamycin]
6.15	O=C(O)c1cc(=O)c2ccccc2[nH]1 [Kynurenic acid]
0.94	CCOC(=O)C1=C(C)NC(C)=C(C(=O)OCC)C1c1ccccc1C=CC(=O)OC(C)(C)C [Lacidipine]
1.74	CC(O)C(N)=O (stereo not drawn) [Lactamide]
7.32	CC(C)CC(N)C(=O)N1CCCC1C(=O)O (stereo not drawn) [Leu-Pro]
2.9	O=C(O)COCCN1CCN(C(c2ccccc2)c2ccc(Cl)cc2)CC1 (stereo not drawn) [Levocetirizine]
0.92	C=C(C)C1CC=C(C)CC1 (stereo not drawn) [Limonene]
0.97	C=CC(C)(O)CCC=C(C)C (stereo not drawn) [Linalool]
1.3	O=C1CC(c2ccc(O)cc2)Oc2cc(O)ccc21 (stereo not drawn) [Liquiritigenin]
1.7	COc1ccc(CN2CCN(C(c3ccc(F)cc3)c3ccc(F)cc3)CC2)c(OC)c1OC [Lomerizine]
1.27	CCCCc1nc(Cl)c(CO)n1Cc1ccc(-c2ccccc2-c2nn[nH]n2)cc1 [Losartan]
0.97	CCOC(=O)OC1(C(=O)OCCl)CCC2C3CCC4=CC(=O)C=CC4(C)C3C(O)CC21C (stereo not drawn) [Loteprednol Etabonate]
2.49	O=c1[nH]c(=O)c2nccnc2[nH]1 [Lumazine]
9.38	CC(C)C(NC(=O)C(N)CCCCN)C(=O)O (stereo not drawn) [Lys-Val]
9.54	NCCCCC(N)C(=O)O (stereo not drawn) [Lysine]
4.28	CC1(C)SC2C(N=CN3CCCCCC3)C(=O)N2C1C(=O)O (stereo not drawn) [Mecillinam]
